Key:
bone mineral density = test: Osteoporosis model in ovariectomized rats, bone mineral density; assay type: in vivo, Sprague Dawley rats; settings: OVX rats treated orally daily for 35 days, in 20% hydroxypropyl β-cyclodextrin; femur x-ray image analysis and tibia quantitative computed tomography
From the text: Seventy-five day old female Sprague Dawley rats (weight range of 200 g to 225 g) are obtained from Charles River Laboratories (Portage, Mich.). The animals are either bilaterally ovariectomized (OVX) or exposed to a Sham surgical procedure at Charles River Laboratories, and then shipped after one week. Upon arrival, they are housed in metal hanging cages in groups of 3 or 4 per cage and have ad libitum access to food (calcium content approximately 0.5%) and water for one week. Room temperature is maintained at 22.2°±1.70° C. with a minimum relative humidity of 40%. The photoperiod in the room is 12 hours light and 12 hours dark.
Following the General Procedure, infra, the rats are treated daily for 35 days (6 rats per treatment group) and sacrificed by carbon dioxide asphyxiation on the 36th day. The 35 day time period is sufficient to allow maximal reduction in bone density, measured as described herein. At the time of sacrifice, the uteri are removed, dissected free of extraneous tissue, and the fluid contents are expelled before determination of wet weight in order to confirm estrogen deficiency associated with complete ovariectomy. […]
The right femurs are excised and digitilized x-rays generated and analyzed by an image analysis program (NIH image) at the distal metaphysis. The proximal aspect of the tibiae from these animals are also scanned by quantitative computed tomography.

SMILES | melting point | loss of bone mineral density (bone mineral density)
COc1ccc(-c2cc3ccc(OC)cc3s2)cc1 [Example 1, 2-(4-Methoxyphenyl)-6-Methoxybenzo[b]thiophene] | 193 to 194 °C | –
C#C[C@]1(O)CC[C@H]2[C@@H]3CCc4cc(O)ccc4[C@H]3CC[C@@]21C [ethynyl estradiol, 17-α-ethynyl estradiol] | – | a reduction in the loss of bone mineral density

Source: patent US6395769B1, “2-arylbenzo[b]thiophenes useful for the treatment of estrogen deprivation syndrome” (Eli Lilly and Company, priority 1997, dated 2002)
